The results in this text go back to ChEMBL document CHEMBL3259548, “Design, synthesis and biological evaluation of novel isoniazid derivatives with potent antitubercular activity” (Eur J Med Chem, 2014).

Each structure is given as a SMILES string. In brackets after ≈: the same amount, converted by molar mass. A value given as a limit tells only on which side of the number the result lay.

The test system of one assay is Mycobacterium tuberculosis. The assay is described as follows: Ratio of isoniazid MIC to compound MIC for Mycobacterium tuberculosis H37Rv clinical isolate harboring katG S315T mutant by BACTEC 960 assay. The class given is functional.
For the molecule `CCCCCCCCCC(=O)NNC(=O)c1ccncc1`, the Ratio is 6.

The next assay has as its system Mycobacterium tuberculosis. The assay is described as follows: Antitubercular activity against katG-deficient isoniazid-resistant Mycobacterium tuberculosis H37Rv ATCC 27294 by BACTEC 960 assay. The class given is functional.
In the case of `O=Cc1cccc(/C=N/NC(=O)c2ccncc2)c1`, the minimum inhibitory concentration (MIC) (as a rule, the lowest concentration found to suppress growth) was more than 39.5 µM. The same measure, in the same setting: with `CC(=O)NNC(=O)c1ccncc1` the figure was more than 55.8 µM; with `O=C(NNC1CCC(c2ccccc2)CC1)c1ccncc1` (stereo not given), more than 33.9 µM.

In turn, `CCCCCCCCCC(=O)NNC(=O)c1ccncc1` gave an MIC of more than 34.3 µM. On the same count and under the same terms, with `NNC(=O)c1ccncc1` [ISONIAZID] the figure was more than 72.9 µM.

On to `O=Cc1ccc(/C=N/NC(=O)c2ccncc2)cc1`, for which the minimal inhibitory concentration (MIC) was more than 39.5 µM. Still for that read-out and setting: with `O=C(NN=C1CCC(c2ccccc2)CC1)c1ccncc1` (stereo not given) the figure was more than 34.1 µM.

`O=C(N/N=C/c1ccc(CO)cc1)c1ccncc1`: the MIC was more than 39.2 µM. Same read-out and setting: with `O=C(NN=C1CCCC1)c1ccncc1` the figure was more than 49.2 µM; with `O=C(N/N=C/c1cccc(CO)c1)c1ccncc1`, more than 39.2 µM.

For a further assay, the system named is Mycobacterium tuberculosis. Put plainly: Antitubercular activity against Mycobacterium tuberculosis H37Rv clinical isolate harboring katG S315T mutant by BACTEC 960 assay. Type of assay: functional.
Consider `O=Cc1cccc(/C=N/NC(=O)c2ccncc2)c1`, for which the minimal inhibitory concentration (MIC) was more than 39.5 µM. `O=C(N/N=C/c1ccc(Oc2ccccc2)cc1)c1ccncc1` yielded a minimal inhibitory concentration (MIC) of 18.9 µM (≈ 6 µg/mL). Same read-out and setting: with `COC(=O)c1ccc(/C=N/NC(=O)c2ccncc2)cc1` the figure was 21.2 µM (≈ 6.01 µg/mL); with `CCCCCC(C)C(=O)NNC(=O)c1ccncc1` (stereo not given), more than 38 µM. The same measure, in the same setting: with `CC(=O)NNC(=O)c1ccncc1` the figure was more than 55.8 µM; with `O=C(NNC1CCC(c2ccccc2)CC1)c1ccncc1` (stereo not given), more than 33.9 µM. The same measure, in the same setting: with `CCCCCCCCCC(=O)NNC(=O)c1ccncc1` the figure was 6.9 µM (≈ 2.01 µg/mL). For `NNC(=O)c1ccncc1` [ISONIAZID], the minimum inhibitory concentration (MIC) turned out to be 43.8 µM (≈ 6.01 µg/mL). Same read-out and setting: with `O=Cc1ccc(/C=N/NC(=O)c2ccncc2)cc1` the figure was more than 39.5 µM; with `O=C(NN=C1CCC(c2ccccc2)CC1)c1ccncc1` (stereo not given), 34.1 µM (≈ 10 µg/mL). Consider `O=C(N/N=C/c1ccc(CO)cc1)c1ccncc1`, for which the MIC came to 39.2 µM (≈ 10 µg/mL). Same read-out and setting: with `O=C(NN=C1CCCC1)c1ccncc1` the figure was 39.4 µM (≈ 8.01 µg/mL). On the same count and under the same terms, with `O=C(N/N=C/c1cccc(CO)c1)c1ccncc1` the figure was 39.2 µM (≈ 10 µg/mL); with `NNC(=O)c1ccnc(NN)c1`, 47.9 µM (≈ 8.01 µg/mL).
